According to article PMC6154738, “Anti-Onchocerca and Anti-Caenorhabditis Activity of a Hydro-Alcoholic Extract from the Fruits of Acacia nilotica and Some Proanthocyanidin Derivatives” (Molecules : A Journal of Synthetic Chemistry and Natural …, 2017):
Values after ≈ are worked out from the molar mass of the structure shown. Read-outs that look alike come from different tables or passages of the source.

Columns and labels:
O. ochengi microfilariae = assay: microbe, parasite or virus in culture; parameters: species or system Onchocerca ochengi
Method: Microfilariae were isolated as describe by Cho-Ngwa et al. and Ndjonka et al.. About 10 skin snips were obtained from different locations of the skin. The skin snips were then incubated at 37 °C in PBS to let Mf emerge. The highly motile Mf were concentrated by centrifugation at 400× g for 10 min and quantified. The Mf were incubated at 37 °C with the crude extract, fractions and pure compounds.
(§1) Adult worms (six individuals per well for males and one per well for the female) and Mf were washed twice and were subsequently transferred to RPMI-1640 medium supplemented with L-glutamine, 100 U/mL penicillin and 100 µg/mL streptomycin and incubated at 37 °C in 24-well plates (96-well plate for Mf) with different concentrations of the drugs tested. Worm mortality was checked by observation under the binocular microscope after 48 h. After shaking, immotile and fully-elongated worms were considered to be dead. All tests were done in three independent triplicate determinations.

[1] = In vitro cytotoxicity (MTT) and CC50 determination; assay type: cell-based; details: human
Method: (§2) Cell culture: […] cells at Passage 70 were kindly provided by Prof. Hensel, Institute of Pharmaceutical Biology and Phytochemistry, University of Münster, and were cultured as previously describe by Zumdick et al..
(§3) Cytotoxicity test: The cytotoxicity assays were performed according to the method of Rahman et al.. Briefly, 1.5 × 10^4 viable cells/well were seeded in a 96-well plate and incubated for 24 to 48 h. […] DMEM samples were used as the negative control. […] The medium was removed, and formazan, generated by the activity of dehydrogenases, was solubilized with 70 µL of acidified isopropanol (0.4 M HCl). The amount of MTT-formazan that is directly proportional to the number of living cells was determined by measuring the optical density (OD) at 540 nm using a spectrophotometer. All controls used were treated equally. As control and to determine 100% growth, Caco-2 cells were grown in the absence of drugs so as to calculate cell viability. All determinations were performed in triplicate. […] The selectivity index (SI) values were calculated as the ratio: SI = CC50 of drug on Caco2/LC50 of drug on worm.

O. ochengi [2] = assay: Anti-Onchocerca activity, all forms of the parasite (summary statements); details: read-out: LC50 against O. ochengi (all three forms)
Method: as §1

Wistar rats = assay: Acute oral toxicity on rats
Description: Adult Wistar rats (Rattus norvegicus), males aged 7 to 8 weeks and weighing 150 to 200 g, used for the experiments were obtained from LANAVET (Laboratoire National Vétérinaire, Garoua, Cameroon). The rats were acclimatized for one week in the Veterinary Research Laboratory of the Institute of Agricultural Research for Development, Wakwa, Cameroon, before initiating experiments. Animals were housed in groups of three (one group for the negative control, six groups for each drug at the first phase, six others at the second phase) under ambient temperatures (23 °C ± 1 °C) with relative humidity 55 ± 5% and 12 h light/dark cycle in polycarbonate cages. […] They were monitored by a veterinarian for health status.
Acute oral toxicity (LD50, that is the dose that kills 50% of animals of the tested group) was measured using the method of the OECD guidelines for the testing of chemicals [56] following the European Community guidelines for the protection of animals used in experiments [69] and respecting the 3Rs (Replacement, Refinement, Reduction) [70]. Drugs in distilled water were orally administered separately at doses of 10 mg/kg, 100 mg/kg and 1000 mg/kg body weight. The negative controls were distilled water-administered rats. They were given to three groups of three rats each and observed for 24 h. […] The test was done at a single oral dose for each rat in a 5 mL/kg volume. The experimental animals were starved for 24 h before and 4 h after treatment. […] The appearance of toxic symptoms, such as behavioral changes, locomotion, convulsions and mortality, was observed and recorded. Animals were observed constantly for the first 30 min after administration and, thereafter, every 4 h up to 24 h and, subsequently, once a day for up to 14 days.

[3] = tested on: C. elegans CB3474 (ben-1(e1880) III); assay: microbe, parasite or virus in culture; details: Caenorhabditis elegans, 48 h
Method: (§4) All strains were obtained from the Caenorhabditis Genetic Centre (CGC, Minneapolis, MN, USA). Strains were maintained at 20 °C on nematode growth medium (NGM). All worms were age-synchronized and obtained from eggs that were isolated by bleaching.
(§5) Young adult (L4 stage) worms were used to assess drug lethality. Monitored endpoint was 48 h mortality. Tests were performed in 24-well plates. Five hundred (500) microliters of test solution, which is M9-buffer (3 g KH2PO4, 6 g Na2HPO4, 5 g NaCl, 0.25 g MgSO4.7H2O, in 1 L of water after been autoclaved supplemented with 2% glucose, 0.5% cholesterol), were distributed in 24-well plates. The volume of M9-buffer equivalent to the drug to be added for each drug final concentration (in each test, three to six concentrations were used) was removed. Untreated worms in M9-buffer were used as negative control. […] Crude extract fraction (stock solution at 100 mg/mL) and pure compound (stock solution at 100 mg/mL) previously dissolved in M9-buffer were then added in well plates at increasing concentration (varying from 0 to 1000 or 1500 µg/mL for extract and fractions; 0 to 100 or 150 µg/mL). The young adult (10 to 15 ± 2) from the axenic culture (without food source) were then added at the test solution. […] Treatments were replicated three times.

[4] = tested on: C. elegans CB211 (lev-1(e211) IV); assay: microbe, parasite or virus in culture; details: Caenorhabditis elegans, 48 h
Method: as §4, §5

[5] = tested on: C. elegans ZZ16 (lev-9(x16) X); assay: microbe, parasite or virus in culture; details: Caenorhabditis elegans, 48 h
Method: as §4, §5

[6] = tested on: C. elegans VC722 (glc-2(ok1047) I); assay: microbe, parasite or virus in culture; details: for LC50: Caenorhabditis elegans, 48 h
Method: as §4, §5

[7] = tested on: C. elegans DA1316 (avr-14(ad1302) I avr-15(ad1051) glc-1(pk54)); assay: microbe, parasite or virus in culture; details: for LC50: Caenorhabditis elegans, 48 h
Method: as §4, §5

C. elegans N2 Bristol WT = assay: microbe, parasite or virus in culture
Method: as §4, §5

O. ochengi males = assay: microbe, parasite or virus in culture; parameters: species or system Onchocerca ochengi
Description: The adult male worms were isolated as previously describe by Ndjonka et al. from fresh pieces of cattle skin (cow-udder) with palpable nodules obtained from the communal slaughter house of Ngaoundere in the Adamawa region of Cameroon. Nodules removed from the skin were brought to the laboratory, washed, drained and sterilized with 70% ethanol for dissection. After dissection of nodules, O. ochengi were extracted, isolated and washed three times in sterile phosphate-buffered saline (PBS). To analyze the anthelmintic activity of extract, fractions and pure compounds, the worms were incubated at 37 °C.
as §1

O. ochengi females = assay: microbe, parasite or virus in culture; parameters: species or system Onchocerca ochengi
Method: The adult female worms were isolated by digestion of the nodules with collagenase at 37 °C. The female worms were cultured in a CO2-incubator [67]. For anthelmintic activity, they were incubated with the crude extracts, fractions and pure compounds.
as §1

O. ochengi [8] = details: read-out: LC50 on O. ochengi; stated in the introduction, no reference given; cited from earlier work
Caco-2 cells [9] = assay: In vitro cytotoxicity (MTT) and CC50 determination; assay type: cell-based
Method: as §2, §3

Caco-2 cells [10] = tested on: Caco-2 cells; parameters: method as in PMID 22776719; details: at 127 µg/mL; cited from earlier work
[11] = Onchocerca ochengi, 48 h, read-out: LC50/48 h
[12] = Onchocerca ochengi, 48 h, read-out: LC50/48 h (in brackets)
[13] = SI = CC50 on Caco-2/LC50 on worm
[14] = Caco-2, CC50 after 48 h calculated in µM, read-out: Cytotoxicity CC50, Caco-2 (in brackets) (converted)
[15] = read-out: LC50/48 h (in brackets)

Question: Which LC50 (O. ochengi microfilariae; [11]) does the source give for `O=C(OC1Cc2c(O)cc(O)cc2OC1c1ccc(O)c(O)c1)c1cc(O)c(O)c(O)c1` (single isomer, unassigned; (-)) [ECG, (−)-epicatechin-3-O-gallate] here?
Answer: 1 ± 0.4 µg/mL

Question: And the LC50 (O. ochengi microfilariae; [12])?
Answer: 2.2 µM

Question: What about the “Selectivity Index (SI) O. ochengi Microfilariae” value (O. ochengi microfilariae; [13]) of the same compound?
Answer: 67.6

Question: What about the CC50 at 48 h [1, 14] of the same compound?
Answer: 153 µM

Question: What about the CC50 at 72 h ([1]; Caco-2, MTT, read-out: Cytotoxicity, means CC50 ± SD, Caco-2) of the same compound?
Answer: 67.6 ± 0.5 µg/mL (≈ 153 µM)

Question: What about the LC50 (O. ochengi [2]) of the same compound?
Answer: < 2.5 µg/mL

Question: What about the “Mortality of rats: rat number end/start” value (Wistar rats; Phase 1, 10 mg/kg single oral dose) of the same compound?
Answer: 0/3

Question: And the “Mortality of rats: rat number end/start” value (Wistar rats; Phase 1, 100 mg/kg single oral dose)?
Answer: 0/3

Question: What about the “Mortality of rats: rat number end/start” value (Wistar rats; Phase 1, 1000 mg/kg single oral dose) of the same compound?
Answer: 0/3

Question: And the “Mortality of rats: rat number end/start” value (Wistar rats; Phase 2, 1500 mg/kg single oral dose)?
Answer: 0/3

Question: And the “Mortality of rats: rat number end/start” value (Wistar rats; Phase 2, 3000 mg/kg single oral dose)?
Answer: 0/3

Question: What about the “Mortality of rats: rat number end/start” value (Wistar rats; Phase 2, 5000 mg/kg single oral dose) of the same compound?
Answer: 0/3

Question: What about the LC50 ([3]; read-out: LC50/48 h) of the same compound?
Answer: 19.6 ± 0.8 µg/mL

Question: And the LC50 [3, 15]?
Answer: 44.2 µM

Question: What about the LC50 ([4]; read-out: LC50/48 h) of the same compound?
Answer: 41.7 ± 1.2 µg/mL

Question: And the LC50 [4, 15]?
Answer: 89.3 µM

Question: What about the LC50 ([5]; read-out: LC50/48 h) of the same compound?
Answer: 39.5 ± 0.9 µg/mL

Question: And the LC50 [5, 15]?
Answer: 76.4 µM

Question: And the LC50 ([6]; read-out: LC50/48 h)?
Answer: 27.2 ± 1.4 µg/mL

Question: And the LC50 [6, 15]?
Answer: 61.4 µM

Question: And the LC50 ([7]; read-out: LC50/48 h)?
Answer: 27.4 ± 1.1 µg/mL

Question: What about the LC50 [7, 15] of the same compound?
Answer: 61.9 µM

Question: And the LC50 (C. elegans N2 Bristol WT; Caenorhabditis elegans, 48 h, read-out: LC50/48 h)?
Answer: 33.8 ± 2.7 µg/mL

Question: What about the “Selectivity Index (SI) C. elegans Wild Type” value (C. elegans N2 Bristol WT; [13]) of the same compound?
Answer: 2.0

Question: What about the LC50 (O. ochengi males; [11]) of the same compound?
Answer: 2.1 ± 0.3 µg/mL

Question: And the LC50 (O. ochengi males; [12])?
Answer: 4.7 µM

Question: And the “Selectivity Index (SI) O. ochengi Males” value (O. ochengi males; [13])?
Answer: 32.2

Question: And the LC50 (O. ochengi females; [11])?
Answer: 2.1 ± 0.6 µg/mL

Question: What about the LC50 (O. ochengi females; [12]) of the same compound?
Answer: 4.7 µM

Question: And the “Selectivity Index (SI) O. ochengi Females” value (O. ochengi females; [13])?
Answer: 32.2

Question: With Ivermectin [reference compound] as the compound, how does the LC50 (O. ochengi [8]) read?
Answer: 1.7 µM

Question: And the LC50 (O. ochengi microfilariae; O. ochengi microfilariae, 48 h, calculated in µM, read-out: LC50/48 h (in brackets) (converted))?
Answer: 1.7 µM

Question: What about the LC50/48 h (O. ochengi microfilariae; O. ochengi microfilariae, 48 h, mean ± SD) of the same compound?
Answer: 1.5 ± 0.0 µg/mL

Question: What about the CC50 (Caco-2 cells [9]; [14]) of the same compound?
Answer: 140 µM

Question: And the “Cytotoxicity, means CC50 ± SD, Caco-2” value (Caco-2 cells [9]; Caco-2, MTT)?
Answer: 28.7 ± 0.7 µg/mL

Question: And the LC50/48 h ([6]; C. elegans VC722 (ivermectin-resistant))?
Answer: >100 µg/mL

Question: What about the LC50/48 h ([7]; C. elegans DA1316 (ivermectin-resistant)) of the same compound?
Answer: >100 µg/mL

Question: And the LC50/48 h (C. elegans N2 Bristol WT; C. elegans WT, 48 h, mean ± SD)?
Answer: 1.2 ± 0.1 µg/mL

Question: What about the LC50 (C. elegans N2 Bristol WT; read-out: LC50/48 h (in brackets), C. elegans WT, 48 h, calculated in µM) of the same compound?
Answer: 1.3 µM

Question: And the LC50 (O. ochengi males; O. ochengi males, 48 h, calculated in µM, read-out: LC50/48 h (in brackets) (converted))?
Answer: 1.3 µM

Question: And the LC50/48 h (O. ochengi males; O. ochengi males, 48 h, mean ± SD)?
Answer: 1.2 ± 0.5 µg/mL

Question: What about the LC50 (O. ochengi females; O. ochengi females, 48 h, calculated in µM, read-out: LC50/48 h (in brackets) (converted)) of the same compound?
Answer: 1.7 µM

Question: What about the LC50/48 h (O. ochengi females; O. ochengi females, 48 h, mean ± SD) of the same compound?
Answer: 1.5 ± 0.3 µg/mL

Question: With procyanidin as the compound, how does the “Reduction of cell viability” value (Caco-2 cells [10]) read?
Answer: 15%
